Patent US8754040B2, “Cyclic peptide compound, method for producing same, anti-infective agent, antibiotic-containing fraction, antibiotic, method for producing antibiotic, antibiotic-producing microorganism, and antibiotic produced by same” (priority 2010, dated 2014)
Converted amounts (≈) assume the structure as drawn. “Also recorded” adds a separate entry of the source. Read-outs that look alike come from different tables or passages of the source. Positions of bridges follow the written chain, without caps; N, C: chain ends. Non-standard residues stand in square brackets, D forms with d. Residues, ends and D or L forms follow the SMILES beside them. *: point of attachment. Hexanoyl(3R-OH,5-Me) = CC(C)C[C@@H](O)CC(=O)*; dNMeF = CN[C@H](Cc1ccccc1)C(=O)O

Assays:
Candida tropicalis pK233 = type: cell-based
[1] = test system: Cryptococcus neoformans H99; type: cell-based
Salmonella enterica = test system: Salmonella enterica
Text: (§1) Antibacterial activity of the antibiotic-substance-containing fraction at each fractionation stage from a culture produced from RH2180-5 and that of the antibiotic substance obtained therefrom by separation and purification thereof can be evaluated by MIC. […] For example, it is done with a broth microdilution method based on CLSI (formerly NCCLS: National Committee for Clinical Laboratory Standards).
Antibacterial spectrum of the RH2180-5 Peak 5 Substance to various bacteria including MRSA and VRE was studied. In addition, influence of chemical resistance was also studied. For study of the latter, Staphylococcus aureus and Enterococcus faecalis were selected, wherein measurement of MIC value of each peak substance was made by a broth microdilution method based on CLSI (formerly NCCLS: National Committee for Clinical Laboratory Standards) as to Staphylococcus aureus not showing resistance to a chemical (hereinafter abbreviated as “MSSA 1”) and two kinds of MRSA showing resistance to many chemicals including methicillin (MRSA 3 and MRSA 4; see Table 3 for resistive chemicals) for Staphylococcus aureus; and as to Enterococcus faecalis not showing resistance to a chemical (hereinafter abbreviated as “EF 1”) and showing resistance to vancomycin (hereinafter abbreviated as “VRE”) for Enterococcus faecalis. […]

[2] = test system: Staphylococcus aureus (MSSA1)
Text: as §1
Antibacterial spectrum of the RH2180-5 Peak 5 Substance to various bacteria including MRSA and VRE was studied. In addition, influence of chemical resistance was also studied. For study of the latter, Staphylococcus aureus and Enterococcus faecalis were selected, wherein measurement of MIC value of each peak substance was made by a broth microdilution method based on CLSI (formerly NCCLS: National Committee for Clinical Laboratory Standards) as to Staphylococcus aureus not showing resistance to a chemical (hereinafter abbreviated as “MSSA 1”) and two kinds of MRSA showing resistance to many chemicals including methicillin (MRSA 3 and MRSA 4; see Table 3 for resistive chemicals) for Staphylococcus aureus; and as to Enterococcus faecalis not showing resistance to a chemical (hereinafter abbreviated as “EF 1”) and showing resistance to vancomycin (hereinafter abbreviated as “VRE”) for Enterococcus faecalis.
Test microorganisms of Staphylococcus aureus and Enterococcus faecalis, the same as Test Example 1, were selected; and measurement of MIC value of each peak substance was made by a broth microdilution method based on CLSI (formerly NCCLS: National Committee for Clinical Laboratory Standards) as to MSSA 1 and EF 1, and MRSA 3, MRSA 4, and VRE, the same as Test Example 1.
Antibacterial spectrum of the foregoing RH2180-5 Peak 5 Substance to various microorganisms including MRSA and VRE was studied. Each MIC value for the case added with 10% blood serum and for the case not added with the same was measured by a broth microdilution method based on CLSI (formerly NCCLS: National Committee for Clinical Laboratory Standards).

Listeria monocytogenes = type: cell-based
Staphylococcus aureus [3] = experiment: bacteriolytic activity, absorbance at 600 nm (OD600); type: cell-based; conditions: concentration five times that of Test Example 1, 37° C., compared with vancomycin and daptomycin, FIG. 11
Procedure: Staphylococcus aureus was diluted in CA-Mueller Hinton Broth medium; and then, the RH2180-5 Peak 5 Substance, vancomycin, and daptomycin were added thereinto with the concentrations thereof being five times as much as those of Test Example 1; and then, the microorganism was cultured at 37° C. By using an absorption spectrometer (manufactured by Shimadzu Corp.), absorbance at 600 nm (OD600) after their addition was followed with passage of time.

[4] = acute toxicity test to a mouse; type: in vivo
Procedure: Further, the RH2180-5 Peak 5 Substance was injected hypodermically to the mouse to study acute toxicity of the RH2180-5 Peak 5 Substance to the mouse by observation one day after the administration.

[5] = test system: Smith strain of Staphylococcus aureus; experiment: mouse Staphylococcus aureus infection model (therapeutic effect); type: in vivo, mouse (ICR female)
Procedure: Smith strain of Staphylococcus aureus was suspended in 7% mucin+0.2 mM ferric ammonium citrate, and 6.2×10^6 (20×LD50) thereof was administered into the peritoneal cavity of 5 mice per group (ICR female of four weeks of age). Each drug was injected hypodermically 2 hours after administration of the bacterium by the method shown below.
Similarly, ED50 of vancomycin to the mouse model used this time was studied. […] Here, ED50 values were obtained by the probit method.

Staphylococcus aureus [6] = experiment: silkworm Staphylococcus aureus infection model (therapeutic effect); type: in vivo, silkworm (larva of Bombyx mori); conditions: purification stages, Table 2
Text: In the present invention too, a first screening to narrow down effective strains from several tens of thousands of extraordinary large numbers of strains may be done by any method as far as the antibacterial activity can be evaluated with the said method; and thus, for example, by referring to MIC, test bodies showing the antibacterial activity to Staphylococcus aureus in culture supernatant of each strain may be picked up. This is because strains not showing the antibacterial activity at all are not in the scope of examination. Any method capable of evaluating the antibacterial activity may be used; but a method with which a strain recognized to show, with referring to MIC, the antibacterial activity to Staphylococcus aureus in culture supernatant of various test strains is picked up is preferable. […]
Strains recognized to show the therapeutic effect in the silkworm Staphylococcus aureus infection model are further subjected to various separation and purification treatments wherein the therapeutic effect is evaluated in each operation by using the silkworm Staphylococcus aureus infection model. […]

Staphylococcus aureus [7] = experiment: survived cell numbers (CFU) of Staphylococcus aureus after drug addition; type: cell-based; conditions: 25 μg/ml
Procedure: To CA-Mueller Hinton Broth medium were taken 1.8×10^8 Staphylococcus aureus, and then the foregoing RH2180-5 Peak 5 Substance (25 μg/mL), vancomycin (VM, 5 μg/mL), and gentamicin (GM, 2.5 μg/mL) were added thereinto; and then, survived cell numbers after 15 minutes, 30 minutes, 60 minutes, and 120 minutes were obtained as CFU (colony forming unit/mL).

Streptococcus pyogenes = type: cell-based

CC[C@H](C)[C@@H]1NC(=O)[C@@H](Cc2c[nH]c3ccccc23)NC(=O)[C@@H](CCC(N)=O)NC(=O)[C@H](CCC(=O)O)NC(=O)[C@@H](CCCNC(=N)N)NC(=O)[C@H](CC(C)C)NC(=O)[C@@H](Cc2ccccc2)N(C)C(=O)CNC(=O)[C@H](CO)NC(=O)[C@@H](CCCNC(=N)N)NC(=O)[C@@H](NC(=O)C[C@H](O)CC(C)C)[C@@H](C)OC(=O)[C@H]([C@@H](C)O)NC1=O [Peak P5] ({Hexanoyl(3R-OH,5-Me)}-T[dR]SG[dNMeF]L[dR]E[dQ][dW]IT; ester 1-C)
MIC (Candida tropicalis pK233): >100 µg/mL | MIC [1]: >100 µg/mL | MIC (Salmonella enterica; Table 3, Salmonella enteria): >100 µg/mL | MIC (Salmonella enterica; Table 6, without serum, Salmonella enterica): >100 µg/mL | MIC ([2]; Table 3, Staphylococcus aureus (MSSA1), resistance-showing chemicals: Non): 5 µg/mL (≈ 3.09 µM) | MIC ([2]; Table 4, MSSA1): 6.3 µg/mL (≈ 3.89 µM) | MIC ([2]; Table 6, with 10% serum, Methicillin susceptible S. aureus MSSA1 (clinical isolate)): 1.5 µg/mL (≈ 0.927 µM) | MIC ([2]; Table 6, without serum, Methicillin susceptible S. aureus MSSA1 (clinical isolate)): 3.1 µg/mL (≈ 1.92 µM) | MIC (Listeria monocytogenes): 6.3 µg/mL (≈ 3.89 µM) | bacteriolytic activity (decrease of absorbance OD600) (Staphylococcus aureus [3]): shows the bacteriolytic activity | acute toxicity to the mouse ([4]; injected hypodermically, up to 50 mg/kg, observation one day after the administration, listed as RH2180-5 Peak 5 Substance): mouse was not killed; also recorded: no toxicity observed | highest dose without toxicity (50 mg/kg) relative to ED50 ([4]; mouse, hypodermic): 80 folds | survival in the mouse Staphylococcus aureus infection model ([5]; 25 mg/kg hypodermically, no survival with PBS administration, 5 mice per group): survival of totality of mice | ED50 value relative to vancomycin ([5]; mouse Staphylococcus aureus infection model): about one third | ED50 ([5]; mouse, S. aureus Smith 6.2 × 10^6 (20 × LD50) intraperitoneal, drug injected hypodermically 2 hours later, survival one day after, probit method): 0.6 mg/kg | ED50 (Staphylococcus aureus [6]): 0.3 μg/g-larva | CFU/ml of S. aureus (Staphylococcus aureus [7]; 15 minutes, start 1.8 × 10^8): <1 × 10^4 CFU/ml | CFU/ml of S. aureus (Staphylococcus aureus [7]; 30 minutes): <1 × 10^4 CFU/ml | CFU/ml of S. aureus (Staphylococcus aureus [7]; 60 minutes): <1 × 10^4 CFU/ml | CFU/ml of S. aureus (Staphylococcus aureus [7]; 120 minutes): <1 × 10^4 CFU/ml | Solubility to solvents (chloroform): Insoluble | Solubility to solvents (water, ethanol, methanol, and acetonitrile): Soluble | MIC (Streptococcus pyogenes): 50 µg/mL (≈ 30.9 µM)
